In assay [1] the test system is MDA-MB-231, 4T1, MCF-7, T-47D, and HCC1954 cells. The experiment in a line: MTT assay, summary over breast carcinoma cell lines. In kind it is cell-based. As to conditions: for IC50: Breast carcinoma cell, 24 and 48 h, all five cancer cell lines and all three hybrids together, read-out: IC50, range over breast carcinoma cell lines; for selectivity index (SI = IC50 for MCF-10A/IC50 for human breast tumor cells): range over cell lines and time points. On the procedure:
(§1) The MCF-7 and MDA-MB-231 cells were cultured in the DMEM medium containing 10% of the FBS, HCC1954, T-47D, and 4T1 cells in the RPMI-1640 medium with the addition of 10% of the FBS, and MCF-10A cells in MEGM Mammary Epithelial Cell Growth Medium BulletKit supplemented with penicillin/streptomycin cocktail and 5% of horse serum. The cells were cultured in a […] atmosphere at 5% CO2 and 37 °C. After trypsinization, cells were counted using a Scepter 3.0 handheld automated cell counter (Millipore, Burlington, MA, USA).
(§2) The MTT test was used to assess the metabolic activity of cells treated with the investigated substances following the Sigma-Aldrich manufacturer’s instructions. Briefly, compounds were added in 100 µL of the cultural medium, and cells were incubated for the next 24 and 48 h. Doxorubicin was used as a reference drug. The DMSO was added to dissolve the crystals of formazan. We used the ThermoScientific Evolution 201 UV–VIS spectrophotometer (ThermoFisher Scientific, Waltham, MA, USA) to measure the absorbance of formazan at 570 nm. The initial value of the relative number of cells in control (under 0.1% of the DMSO) was accepted as 100%. We used GraphPad Prism Version 9 to calculate the half-maximal inhibition concentration (IC50) of the studied compounds (the concentration of the drug that reduced cell viability by 50%).

Assay [2] deals with mitogen-activated lymphocytes collected from the peripheral blood of a healthy donor. Set-up: method as in PMID 37579525. As to conditions: cited from earlier work.
The subject of assay [3] is HCC1954 cells. The experiment in a line: MTT assay. In kind it is cell-based. As to conditions: Homo sapiens, read-out: IC50, µM (M ± SD). The procedure: as §1, §2
In general terms: Tetrazolium dyes change colour on reduction, which living cells bring about.

The subject of another assay is T-47D cells. Nature of the assay: MTT assay. In kind it is cell-based. Particulars: Homo sapiens, T47D, read-out: IC50, µM (M ± SD). On the procedure:
as §1, §2

Assay [4] concerns MDA-MB-231 cells. Nature of the assay: MTT assay. As to conditions: Homo sapiens, read-out: IC50, µM (M ± SD). In kind it is cell-based. On the procedure:
as §1, §2

The test system of assay [5] is MCF-7 cells. The experiment in a line: MTT assay. In kind it is cell-based. As to conditions: Homo sapiens, read-out: IC50, µM (M ± SD). On the procedure: as §1, §2
Assay [6] relates to MCF-10A cells. The experiment in a line: Clonogenic assay. In kind it is cell-based. As to conditions: Homo sapiens; for IC50: 72 h exposure, 14 days culture, read-out: IC50 (M ± SD) in clonogenic assay; for inhibition at 50 µM: compound at 50 µM, read-out: inhibition of the formation of colonies. On the procedure: (§3) The clonogenic assay was carried out utilizing the previously published methodology. The MCF-7, MDA-MB-231, HCC1954, and MCF-10A cells (500 cells/2 mL) were seeded in a 12-well plate overnight. Afterward, studied derivatives or doxorubicin (1, 2.5, 5, 10, and 50 µM) were added to cells. The media was changed after 72 h to a compound-free one, and the cells were cultured for the following 14 days. Then, the cells were washed, fixed, and stained with 0.1% crystal violet. After washing, the plates were dried at room temperature. The colonies were recorded by ImageJ software (Version 1.30). The value of colonies in control (non-treated cells) was accepted as 100%. The effect of compounds on the colony-forming ability of cells was expressed as the percentage of colonies compared to the control.

Assay [7] relates to normal human keratinocytes (HaCaT). Set-up: method as in PMID 37579525. Particulars: cited from earlier work.
Assay [8] relates to MCF-10A cells. Nature of the assay: MTT assay. In kind it is cell-based, human. On the procedure:
as §1, §2

Assay [9] has as its system HCC1954 cells. The experiment in a line: Clonogenic assay. In kind it is cell-based, human. As to conditions: Homo sapiens; HCC1954; 72 h exposure, 14 days culture; read-out: IC50 (M ± SD) in clonogenic assay. The procedure: as §3
Assay [10] relates to MDA-MB-231 cells. The experiment in a line: Clonogenic assay. As to conditions: for IC50: Homo sapiens, MDA-MB-231, 72 h exposure, 14 days culture, read-out: IC50 (M ± SD) in clonogenic assay. In kind it is cell-based, human. The procedure:
as §3

Assay [11] concerns MCF-7 cells. The experiment in a line: Clonogenic assay. In kind it is cell-based, human. As to conditions: for IC50: Homo sapiens, MCF7, MCF-7, 72 h exposure, 14 days culture, read-out: IC50 (M ± SD) in clonogenic assay; for formation of colonies: MCF-7, compound at 5 µM. On the procedure:
as §3

Another assay concerns 4T1 cells. Nature of the assay: MTT assay. In kind it is cell-based, murine. As to conditions: Mus musculus, read-out: IC50, µM (M ± SD). The procedure: as §1, §2
Setting [12] is: Homo sapiens, MCF-10A, 24 h, MCF-10A, 24 h, read-out: IC50, µM (M ± SD).
Where [13] appears, read: Homo sapiens, MCF-10A, 48 h, MCF-10A, 48 h, read-out: IC50, µM (M ± SD).
Where [14] appears, read: Homo sapiens, MCF-10A, time point not specified (24 and 48 h), read-out: IC50 towards MCF-10A cells.
Where [15] appears, read: time point not specified (24 and 48 h), read-out: IC50 towards MCF-10A cells.

Molecules are shown by their SMILES. Read-outs that look alike come from different tables or passages of the source.

As a reminder, the IC50 is the concentration at which inhibition is half-maximal. By inhibition is commonly meant the relative decrease from the control value, in per cent. `O=C1CC(N2C(=O)C(=CC(Cl)=Cc3ccc([N+](=O)[O-])cc3)SC2=S)C(=O)N1c1ccc(Cl)cc1` (stereo not drawn) [Les-6294, 1-(4-chlorophenyl)-3-[5-[2-chloro-3-(4-nitrophenyl)prop-2-enylidene]-4-oxo-2-thioxothiazolidine-3-yl]pyrrolidine-2,5-dione]: the half-inhibitory concentration (IC50) was 1.37 to 21.9 µM in assay [1]; 29 to 67 µM in [2]; 4.53 ± 0.18 µM in the assay with HCC1954 cells [3] (HCC1954, 24 h); 5.01 ± 0.23 µM in the assay with HCC1954 cells [3] (HCC1954, 48 h); 4.48 ± 0.51 µM in the assay on T-47D cells (24 h); 2.66 ± 0.21 µM in the assay on T-47D cells (48 h). In addition, the 50% inhibitory concentration (IC50) in the assay with MDA-MB-231 cells [4] (MDA-MB-231, 24 h) was 21.9 ± 9.92 µM; in the assay on MDA-MB-231 cells [4] (MDA-MB-231, 48 h), 3.72 ± 0.22 µM; with MCF-7 cells [5] (MCF7, MCF-7, 24 h), 6.74 ± 0.64 µM; in the assay with MCF-7 cells [5] (MCF7, MCF-7, 48 h), 3.54 ± 0.14 µM; in the assay with MCF-10A cells [6], more than 50 µM; in assay [7] it was more than 73.6 µM. Moreover, the half-inhibitory concentration (IC50) was more than 100 µM in the assay with MCF-10A cells [8] (setting [12]); more than 100 µM in the assay with MCF-10A cells [8] (setting [13]); more than 100 µM in the assay on MCF-10A cells [8] (setting [14]); more than 64.6 µM with MCF-10A cells [8] (setting [15]); 3.05 ± 0.03 µM with HCC1954 cells [9]; 0.67 ± 0.08 µM with MDA-MB-231 cells [10]. For the same compound, the half-maximal inhibitory concentration (IC50) with MCF-7 cells [11] is 1.33 ± 0.1 µM; in the assay on 4T1 cells (4T1, 24 h), 2.2 ± 0.19 µM; with 4T1 cells (4T1, 48 h), 2.22 ± 0.25 µM. For the same compound, the “selectivity index (SI = IC50 for MCF-10A/IC50 for human breast tumor cells)” value in assay [1] is reported as 4.57–37.59. The inhibition at 50 µM in the assay on MCF-10A cells [6] turned out to be 37.1%. Further, the formation of colonies result is “did not observe the growth” in the assay with MDA-MB-231 cells [10] (MDA-MB-231, compound at 5 µM) and “totally inhibited” with MCF-7 cells [11].
For `O=C1CC(N2C(=O)C(=CC(Cl)=Cc3ccc([N+](=O)[O-])cc3)SC2=S)C(=O)N1c1ccc(Br)cc1` (stereo not drawn) [Les-6328, 1-(4-bromophenyl)-3-[5-[2-chloro-3-(4-nitrophenyl)prop-2-enylidene]-4-oxo-2-thioxothiazolidine-3-yl]pyrrolidine-2,5-dione], the concentration for half-maximal inhibition (IC50) in assay [1] was 1.37 to 21.9 µM; in the assay on HCC1954 cells [3] (HCC1954, 24 h), 9.91 ± 0.17 µM; with HCC1954 cells [3] (HCC1954, 48 h) it was 6.4 ± 0.25 µM; in the assay on T-47D cells (24 h), 4.08 ± 0.56 µM; in the assay on T-47D cells (48 h) it was 1.97 ± 0.58 µM; in the assay on MDA-MB-231 cells [4] (MDA-MB-231, 24 h) it was 6.09 ± 0.33 µM. Further, the IC50 in the assay with MDA-MB-231 cells [4] (MDA-MB-231, 48 h) was 2.01 ± 0.12 µM; in the assay on MCF-7 cells [5] (MCF7, MCF-7, 24 h), 3.26 ± 0.4 µM; in the assay on MCF-7 cells [5] (MCF7, MCF-7, 48 h), 2.18 ± 0.19 µM; with MCF-10A cells [6] it was more than 50 µM; with MCF-10A cells [8] (setting [12]), more than 100 µM; with MCF-10A cells [8] (setting [13]), more than 100 µM. Further, the half-inhibitory concentration (IC50) was more than 100 µM in the assay with MCF-10A cells [8] (setting [14]); more than 64.6 µM in the assay with MCF-10A cells [8] (setting [15]); 1.54 ± 0.02 µM with HCC1954 cells [9]; 1.19 ± 0.03 µM in the assay with MDA-MB-231 cells [10]; 1.57 ± 0.12 µM in the assay with MCF-7 cells [11]; 2.25 ± 0.34 µM with 4T1 cells (4T1, 24 h). Besides, the IC50 with 4T1 cells (4T1, 48 h) was 1.94 ± 0.15 µM. Further, the “selectivity index (SI = IC50 for MCF-10A/IC50 for human breast tumor cells)” value in [1] is 10.09–50.76. Moreover, the inhibition at 50 µM in the assay on MCF-10A cells [6] was determined as 25.9%. Besides, the formation of colonies result is on record as “did not observe the growth” in the assay on MDA-MB-231 cells [10] (MDA-MB-231, compound at 2.5 µM) and “totally inhibited” in the assay with MCF-7 cells [11].
